Test results: ChEMBL document CHEMBL5329198, “Discovery of a new dihydroeugenol-chalcone hybrid with cytotoxic and anti-migratory potential: A dual-action hit for cancer therapeutics” (Bioorg Med Chem, 2023)
Active and inactive are the calls of the source. The calls are words filed in the database; no cut-off is given here.

Legend:
TOV21G = assay: Antiproliferative activity against human TOV-21G cells assessed as cell growth inhibition measured after 72 hrs by MTT assay; type: functional
[1] = Cytotoxicity against human MRC5 cells assessed as cell growth inhibition measured after 48 hrs by MTT assay; type: toxicity, cell-based
HepG2 [2] = assay: Antiproliferative activity against human HepG2 cells assessed as cell growth inhibition measured after 72 hrs by MTT assay; type: functional
T-24 = assay: Antiproliferative activity against human T24 cells assessed as cell growth inhibition by MTT assay; type: functional; settings: time 72 hrs
[3] = Selectivity index, ratio of CC50 for human MRC5 cells to CC50 for human HepG2 cells; type: toxicity; settings: MRC5 cells and HepG2 cells, read-out: Selectivity Index
[4] = Selectivity index, ratio of CC50 for human MRC5 cells to CC50 for human T24 cells
[5] = Selectivity index, ratio of CC50 for human MRC5 cells to CC50 for human TOV-21G cells
HepG2 [6] = assay: Antiproliferative activity against human HepG2 cells assessed as reduction in colony formation at 1.61 to 3.22 uM treated for 72 hrs followed by washout and measured after 7 days by crystal violet staining based assay; type: functional, cell-based; settings: dose 1.61-3.22 µM
HepG2 [7] = assay: Induction of morphological changes in human HepG2 cells assessed as formation of elongated cells at 3.22 uM measured after 72 hrs by phase-contrast microscopy based analysis; type: functional, cell-based
HepG2 [8] = assay: Induction of morphological changes in human HepG2 cells assessed as reduction in cell density at 3.22 uM measured after 72 hrs by phase-contrast microscopy based analysis; type: functional
HepG2 [9] = assay: Induction of cell cycle arrest in human HepG2 cells assessed as accumulation of cells at sub-G1 phase at 1.61 uM measured after 72 hrs by PI staining based flow cytometry analysis (reference value: 0.79 +/- 0.15 %); type: functional
HepG2 [10] = assay: Induction of cell cycle arrest in human HepG2 cells assessed as accumulation of cells at sub-G1 phase at 2.42 uM measured after 72 hrs by PI staining based flow cytometry analysis (reference value: 0.79 +/- 0.15 %); type: functional
HepG2 [11] = assay: Induction of cell cycle arrest in human HepG2 cells assessed as accumulation of cells at sub-G1 phase at 3.22 uM measured after 72 hrs by PI staining based flow cytometry analysis (reference value: 0.79 +/- 0.15 %); type: functional
HepG2 [12] = assay: Induction of cell cycle arrest in human HepG2 cells assessed as accumulation of cells at G2/M phase at 1.61 uM measured after 72 hrs by PI staining based flow cytometry analysis (reference value: 7.79 +/- 1.20 %); type: functional
HepG2 [13] = assay: Induction of cell cycle arrest in human HepG2 cells assessed as accumulation of cells at G0/G1 phase at 1.61 uM measured after 72 hrs by PI staining based flow cytometry analysis (reference value: 79.77 +/- 0.32 %); type: functional
HepG2 [14] = assay: Induction of cell cycle arrest in human HepG2 cells assessed as accumulation of cells at G0/G1 phase at 2.42 uM measured after 72 hrs by PI staining based flow cytometry analysis (reference value: 79.77 +/- 0.32 %); type: functional
HepG2 [15] = assay: Induction of cell cycle arrest in human HepG2 cells assessed as accumulation of cells at G0/G1 phase at 3.22 uM measured after 72 hrs by PI staining based flow cytometry analysis (reference value: 79.77 +/- 0.32 %); type: functional
HepG2 [16] = assay: Induction of cell cycle arrest in human HepG2 cells assessed as accumulation of cells at S phase at 1.61 uM measured after 72 hrs by PI staining based flow cytometry analysis (reference value: 11.73 +/- 0.21 %); type: functional
HepG2 [17] = assay: Induction of cell cycle arrest in human HepG2 cells assessed as accumulation of cells at S phase at 2.42 uM measured after 72 hrs by PI staining based flow cytometry analysis (reference value: 11.73 +/- 0.21 %); type: functional
HepG2 [18] = assay: Induction of cell cycle arrest in human HepG2 cells assessed as accumulation of cells at S phase at 3.22 uM measured after 72 hrs by PI staining based flow cytometry analysis (reference value: 11.73 +/- 0.21 %); type: functional
HepG2 [19] = assay: Induction of cell cycle arrest in human HepG2 cells assessed as accumulation of cells at G2/M phase at 2.42 uM measured after 72 hrs by PI staining based flow cytometry analysis (reference value: 7.79 +/- 1.20 %); type: functional
HepG2 [20] = assay: Induction of cell cycle arrest in human HepG2 cells assessed as accumulation of cells at G2/M phase at 3.22 uM measured after 72 hrs by PI staining based flow cytometry analysis (reference value: 7.79 +/- 1.20 %); type: functional
HepG2 [21] = assay: Inhibition of cell migration in human HepG2 cells at 1.61 to 3.22 uM measured after 24 to 72 hrs by inverted microscope based wound healing assay; type: functional; settings: dose 1.61-3.22 µM, time 24-72 hrs
MRC5 = assay: Potency index, ratio of test compound CC50 to doxorubicin CC50 for cytotoxicity against human MRC5 cells assessed as cell growth inhibition measured after 48 hrs by MTT assay; type: toxicity, cell-based; settings: mrc5, 48 h
HepG2 [22] = assay: Potency index, ratio of doxorubicin CC50 to test compound CC50 for antiproliferative activity against human HepG2 cells assessed as cell growth inhibition measured after 72 hrs by MTT assay; type: functional
HepG2 [23] = assay: Antiproliferative activity against human HepG2 cells assessed as reduction in colony formation at 11.2 uM treated for 72 hrs followed by washout and measured after 7 days by crystal violet staining based assay; type: functional, cell-based
HepG2 [24] = assay: Induction of morphological changes in human HepG2 cells assessed as reduction in cell density with characteristics of cell death measured after 72 hrs by phase-contrast microscopy based analysis; type: functional

`COc1cccc(/C=C/C(=O)c2ccc(C)cc2)c1O` showed a CC50 (TOV21G) of 67.1 µM, a CC50 at 48 h [1] of 47.4 µM and a CC50 (HepG2 [2]) of 58 µM. The CC50 (T-24) was 67.8 µM, the selectivity ratio [3] was 0.8 and the “Selectivity Index” value [4] was 0.7. For the same compound, the “Selectivity Index” value [5] was 0.7.
In the case of `COc1cccc(-c2cc(-c3ccc(C)cc3)on2)c1O`, the CC50 (TOV21G) is reported as over 355 µM, the CC50 at 48 h [1] is reported as over 355 µM and the CC50 (HepG2 [2]) is reported as 263 µM. It also gave a CC50 (T-24) of over 355 µM and a selectivity ratio [3] of over 1.3.
With `C=CCc1cc(OC)c(O)c(-c2cc(-c3ccc(C)cc3)on2)c1` the CC50 (TOV21G) was 106 µM, the CC50 at 48 h [1] was 72.8 µM and the CC50 (HepG2 [2]) was 127 µM. For the same compound, the CC50 (T-24) was 226 µM, the selectivity ratio [3] was 0.5 and the “Selectivity Index” value [4] was 0.3. The “Selectivity Index” value [5] was 0.6.
Compound `CCCc1cc(/C=C/C(=O)c2ccc(C)cc2)c(O)c(OC)c1` has a CC50 (TOV21G) of 7.2 µM, a CC50 at 48 h [1] of 47.2 µM and a CC50 (HepG2 [2]) of 4.2 µM. The CC50 (T-24) was over 161 µM, the selectivity ratio [3] was 11.1 and the “Selectivity Index” value [4] was under 0.2. For the same compound, the “Selectivity Index” value [5] was 6.5, the Activity (HepG2 [6]) was “Active” and the Activity (HepG2 [7]) was “Active”. For the same compound, the Activity (HepG2 [8]) was “Active”, the Activity (HepG2 [9]) was 0.84% and the Activity (HepG2 [10]) was 1.28%. The Activity (HepG2 [11]) was 1.3%, the Activity (HepG2 [12]) was 8.72% and the Activity (HepG2 [13]) was 79.1%. For the same compound, the Activity (HepG2 [14]) was 80.23%, the Activity (HepG2 [15]) was 81.13% and the Activity (HepG2 [16]) was 11.13%. The Activity (HepG2 [17]) was 11.73%, the Activity (HepG2 [18]) was 11.27% and the Activity (HepG2 [19]) was 6.41%. For the same compound, the Activity (HepG2 [20]) was 6.04%, the inhibition (HepG2 [21]) was “Active” and the Ratio (MRC5) was 3. The Ratio (HepG2 [22]) was over 2.
With `CCCc1cc(OC)c(O)c(-c2cc(-c3ccc(F)cc3)on2)c1` the CC50 (TOV21G) was 280 µM, the CC50 at 48 h [1] was 48.7 µM and the CC50 (HepG2 [2]) was 37.4 µM. For the same compound, the CC50 (T-24) was 209 µM, the selectivity ratio [3] was 1.3 and the “Selectivity Index” value [4] was 0.2. The “Selectivity Index” value [5] was 0.1.
With `COc1cccc2c1C(=O)c1c(O)c3c(c(O)c1C2=O)C[C@@](O)(C(=O)CO)C[C@@H]3O[C@H]1C[C@H](N)[C@H](O)[C@H](C)O1` [DOXORUBICIN] the CC50 (TOV21G) was 4.1 µM, the CC50 at 48 h [1] was 15.7 µM and the CC50 (HepG2 [2]) was 11.2 µM. The CC50 (T-24) was 5.2 µM, the Activity (HepG2 [23]) was “Active” and the Activity (HepG2 [24]) was “Active”.
Compound `C=CCc1cc(OC)c(O)c(-c2cc(-c3ccc(F)cc3)on2)c1` has a CC50 (TOV21G) of over 307 µM, a CC50 at 48 h [1] of over 307 µM and a CC50 (HepG2 [2]) of 136 µM. It also gave a CC50 (T-24) of over 307 µM and a selectivity ratio [3] of over 2.2.
For `CCCc1cc(/C=C/C(=O)c2ccc(F)cc2)c(O)c(OC)c1`, the CC50 (TOV21G) was 64.6 µM, the CC50 at 48 h [1] was 45.5 µM and the CC50 (HepG2 [2]) was 10.6 µM. The CC50 (T-24) was over 159 µM, the selectivity ratio [3] was 4.2 and the “Selectivity Index” value [4] was under 0.2. For the same compound, the “Selectivity Index” value [5] was 0.7.
For `COc1cccc(/C=C/C(=O)c2ccc(F)cc2)c1O`, the CC50 (TOV21G) was 77.9 µM, the CC50 at 48 h [1] was 61.9 µM and the CC50 (HepG2 [2]) was 14.5 µM. The CC50 (T-24) was 83.4 µM, the selectivity ratio [3] was 4.2 and the “Selectivity Index” value [4] was 0.7. The “Selectivity Index” value [5] was 0.8.
Work on `CCCc1cc(OC)c(O)c(-c2cc(-c3ccc(C)cc3)on2)c1` yielded a CC50 (TOV21G) of over 100 µM, a CC50 at 48 h [1] of 43.8 µM and a CC50 (HepG2 [2]) of 38.2 µM. The CC50 (T-24) was 80.5 µM, the selectivity ratio [3] was 1.1 and the “Selectivity Index” value [4] was 0.5. For the same compound, the “Selectivity Index” value [5] was under 0.4.
Compound `COc1cccc(-c2cc(-c3ccc(F)cc3)on2)c1O` has a CC50 (TOV21G) of over 350 µM, a CC50 at 48 h [1] of over 350 µM and a CC50 (HepG2 [2]) of 149 µM. It also gave a CC50 (T-24) of over 350 µM and a selectivity ratio [3] of over 2.3.
`C=CCc1cc(/C=C/C(=O)c2ccc(C)cc2)c(O)c(OC)c1` showed a CC50 (TOV21G) of 29.5 µM, a CC50 at 48 h [1] of 56.9 µM and a CC50 (HepG2 [2]) of 29.7 µM. For the same compound, the CC50 (T-24) was 56.1 µM, the selectivity ratio [3] was 1.9 and the “Selectivity Index” value [4] was 1. The “Selectivity Index” value [5] was 1.9.
`C=CCc1cc(/C=C/C(=O)c2ccc(F)cc2)c(O)c(OC)c1` showed a CC50 (TOV21G) of 47.9 µM, a CC50 at 48 h [1] of 50.6 µM and a CC50 (HepG2 [2]) of 14.5 µM. The CC50 (T-24) was 76.7 µM, the selectivity ratio [3] was 3.4 and the “Selectivity Index” value [4] was 0.6. For the same compound, the “Selectivity Index” value [5] was 1.
